“Also recorded” adds a separate entry of the source.
Legend:
[1] = test system: HCT116/p53(−/−)/PG13 cells; assay: p53 transcriptional activity, PG13 reporter, HCT116/p53(-/-)/PG13 cells; format: cell-based, human; settings: p53-null HCT116, 16 h, bioluminescence
Method: Cells were treated by the indicated compounds at progressive 1:2 serial dilutions for 16 h, and the luciferase activities were detected by bioluminescence imaging. Fold induction was calculated by comparing to the nontreated cells;

[2] = test system: DR5 and p21 in HCT116/p53(−/−) cells; assay: Western blot of p53 target genes DR5 and p21 in HCT116/p53(-/-) cells; format: cell-based, human; settings: p53-null HCT116 cells, 16 hours, doses per compound in FIG. 2B
Method: (§1) FIGS. 2A-2B show protein levels of p53 target genes p21 and DR5 were induced by selected compounds in HCT/p53(+/+) cells (A) or HCT/p53(−/−) cells (B). In A, doses of compounds (μM) are listed above each lane. Cells treated with compounds were harvested and lysed for SDS-PAGE and immunoblotted with p21 or DR5 antibodies. Ran was used as a protein loading control. Doses of compounds in B were as follows: 2 μM for #15, 12 μM for #1 and #23, 20 μM for #20 and #32, 100 μM for #33, 200 μM for #5, #8, #12, #16, #17, and #22, and 400 μM for #3. The dose for adriamycin was 0.2 μg/ml. Cells were incubated for 16 hours at 37° C. with the various drugs prior to cell harvest;
(§2) Cells were collected and protein concentration was quantified by the Bio-Rad protein assay prior to SDS-PAGE. Proteins were transferred to a PVDF membrane (Immobilon-P, Millipore Corporation, Bedford, Mass.) by a semi-dry transfer apparatus (Bio-Rad Laboratories, Hercules, Calif.). The membranes with transferred proteins were blotted with 10% W/V non-fat dry milk and then incubated with the primary antibody and subsequently secondary antibodies, which were labelled by horseradish peroxidase, or infrared dyes (IR). Signals were visualized by either ECL (Amersham Pharmacia Biotech, England, UK) and exposed to an X-ray film, or scanned by the Odyssey Infared Imaging System (LI-COR Biosciences, Lincoln, Nebr.). Anti-p53, DO-1, was from Santa Cruz biotechnology, Inc. (Santa Cruz, Calif.), anti-p73 (AB-1) and anti-p21 (AB-1) were obtained from Calbiochem (San Diego, Calif.). Anti-ser20 of p53 Cell were obtained from Signaling Technology (Danvers, Mass.) and anti-DR5 antibody was obtained from Cayman Chemical (Ann Arbor, Mich.).
A number of selected compounds was further tested on HCT116/p53^−/− cells to verify the possibility of induction of p53 target gene expression in the absence of p53. […] The importance of this observation is in establishing that it is possible to identify small molecules with the potential to induce p53 target gene expression in p53-deficient cells.

[3] = test system: p73 in HCT116/p53(−/−) cells; assay: Western blot of p73 protein in HCT116/p53(-/-) cells; format: cell-based, human; settings: FIG. 3F
Method: FIGS. 3A-3F show: Structures (A) of isolated compounds and summary of their effects on the p53 family and transcriptional targets (B). Cell cycle profiles of HCT/p53(+/+) and HCT/p53(−/−) in response to treatment by selected compounds (C-E). The dose of #17 was 200 μM and for #23 it was 10 μM. F, p73 protein levels were elevated in HCT116/p53(−/−) cells in response to treatment by selected compounds at various concentrations as indicated;
as §2
The questioned whether the p53 family member p73 is involved in the p53-responsive transcriptional activity induced by the compounds identified was then tested. p63, the other p53 family member, was not tested, because the TA form of p63 is rarely expressed in malignant and normal tissues except for germ cells of the ovary and testis.

[4] = test system: DR5 and p21 in HCT116/p53(+/+) cells; assay: Western blot of p53 target genes DR5 and p21 in HCT116/p53(+/+) cells; format: cell-based, human; settings: parental HCT116 (p53+/+) cells, FIG. 2A
Method: as §1, §2
The chemical library screening was directed at restoring “p53 responses” in p53-deficient cells. The small molecules identified by the cell-based screening procedure appeared to be able to restore p53 responses in p53-deficient colon tumors and to eliminate viable cells. Their function was further tested on wild-type p53-expressing and p53-knockout HCT116 colon adenocarcinoma cell lines. A number of candidate modulators of signaling by the p53 family appeared to induce expression of p53 target genes such as p21 or DR5(13) either with or without stabilizing p53 protein in HCT116 cells (FIG. 2A).

[5] = test system: p53 phosphorylation at ser20 and acetylation at lys382; assay: Western blot of p53 phosphorylation and acetylation (DNA damage signaling); format: cell-based, human; settings: 16 h; for p53 acetylation at lys382: HCT116/p53(+/+) cells; for p53 phosphorylation at ser20: HCT116/p53(+/+)/PG13 and SW480 cells
Method: FIGS. 7A-7C show: p53 levels and posttranslational modifications after treatment by selected compounds. (A) HCT116/p53(+/+) cells were treated with adriamycin, compounds nos. 1, 14, 17, and 23 for 16 h, and p53 and acetylated p53 levels were detected by Western blot. Nonspecific bands (Lower) serve as a loading control. (B) HCT116/p53(+/+)/PG13 cells were treated with adriamycin or compounds as indicated for 16 h and p53, phosphorylated p53 (ser20) levels and firefly luciferase protein expression were detected by Western blot. (C) SW480 cells were treated with compounds as indicated for 16 h, and p53 and phosphorylated p53 (ser20) levels were detected by Western blot. CP, CP-31398;
as §2
In order to determine whether DNA damage signaling is involved in the mechanism of action of selected compounds, Western blot was used to test the status of phosphorylation and acetylation of p53, which are sensitive indicators of DNA damage.

[6] = Toxicity in xenograft-bearing mice; format: in vivo; settings: i.p., #1 100 mg/kg, #14 50 mg/kg, #23 10 mg/kg
Method: Compounds #1, #14, #17, and #23 were tested in colon-tumor xenograft-bearing mice in order to evaluate their toxicities and potential anti-tumor effects (FIG. 4). […] The initial doses were chosen below maximal tolerated doses based on the NCI DTP toxicology databases for chemical compound testing in vivo so that mice would survive drug administration and allow subsequent evaluation of anti-tumor effects. p53-null HCT116 xenografts were first tested to document anti-tumor effects in p53-deficient tumors and an experiment to simulate therapy of established tumors was designed. A total of 2×10^6 p53-null HCT116 cells were implanted on opposite flanks subcutaneously in each of 6 nude mice in each group. When tumor masses grew to about 3-5 mm in diameter, drugs were administered intra-peritoneally (#1: 100 mg/kg; #14: 50 mg/kg; #23: 10 mg/kg), and on the next day additional groups received intravenous TRAIL (15) (100 μg/mice via the tail vein). Tumor weights were determined at 7 days later. […] Nonetheless in the future it may be possible to modify the structure of #17 or identify doses where synergistic interactions with TRAIL may be observed.

Compound | p53 transcriptional activity (reporter assay response) [1] | DR5 and p21 expression (p53 target genes) [2] | p73 protein expression [3] | expression of p53 targets DR5 and p21 proteins [4] | p53 acetylation at lys382 [5] | p53 phosphorylation at ser20 [5] | overt toxicities in treated mice [6]
COc1cccc2c1C(=N)c1c(O)c3c(c(O)c1C2=O)C[C@@](O)(C(C)=O)C[C@@H]3O[C@H]1C[C@H](N)[C@H](O)[C@H](C)O1 [#23] | stronger responses in the reporter assays | increasing expression of the p53 target genes DR5 and p21; also recorded: strongly induce p53 target gene expression | strong inducers of p73 | increased expression of DR5 and p21 proteins | strong inducers | strong inducers of p53 phosphorylation at ser20 | No overt toxicities were observed
CO[C@H]1[C@@H](O)[C@@H](C)O[C@H](O[C@H]2[C@H](Oc3cccc4c(O)c5c(=O)oc6ccc(C)c7c(=O)oc(c34)c5c67)O[C@H](C)[C@H](O)[C@@H]2O)[C@@H]1O [#1] | stronger responses in the reporter assays | increasing expression of the p53 target genes DR5 and p21; also recorded: strongly induce p53 target gene expression |  | increased expression of DR5 and p21 proteins |  |  | No overt toxicities were observed
COc1cccc2c1C(=O)c1c(O)c3c(c(O)c1C2=O)CC(O)(/C(C)=N/O)CC3OC1CC(N)C(O)C(C)O1 (stereo not drawn) [#14] | stronger responses in the reporter assays | increasing expression of the p53 target genes DR5 and p21; also recorded: strongly induce p53 target gene expression | strong inducers of p73 | increased expression of DR5 and p21 proteins | strong inducers | strong inducers of p53 phosphorylation at ser20 | No overt toxicities were observed

— patent US20160151403A1, “SMALL MOLECULE MODULATORS OF P53 FAMILY SIGNALING” (The Trustees of the University of Pennsylvania, priority 2006, published 2016)
